Like-named read-outs stand apart in the source and are kept apart here. Blank lines part the entries; values can stand above or below the compound they belong to.
Legend:
Type in all cases: binding
[1] = biological target: T1, GH13-6; pig pancreatic α-amylase (Sus scrofa, UniProt P00690); test: SPR (Biacore T100), biotinylated enzyme on streptavidin chip
T1 construct: gene AMY2; native porcine pancreas enzyme from Sigma; biotinylated, on streptavidin chip
T1 sequence (P00690 16-511): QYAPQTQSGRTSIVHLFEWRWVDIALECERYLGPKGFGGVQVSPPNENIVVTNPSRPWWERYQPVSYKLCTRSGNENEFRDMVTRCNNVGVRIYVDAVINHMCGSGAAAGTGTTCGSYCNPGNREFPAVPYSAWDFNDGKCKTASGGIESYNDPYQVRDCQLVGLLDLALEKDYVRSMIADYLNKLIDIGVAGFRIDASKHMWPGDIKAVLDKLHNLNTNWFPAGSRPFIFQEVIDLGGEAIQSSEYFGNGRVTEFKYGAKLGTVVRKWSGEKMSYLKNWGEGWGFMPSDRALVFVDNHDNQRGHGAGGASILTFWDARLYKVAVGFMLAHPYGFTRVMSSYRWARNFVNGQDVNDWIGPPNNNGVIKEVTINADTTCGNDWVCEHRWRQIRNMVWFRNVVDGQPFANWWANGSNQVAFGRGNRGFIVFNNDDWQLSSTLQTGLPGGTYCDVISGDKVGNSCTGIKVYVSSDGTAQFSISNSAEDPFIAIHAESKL
Text: SPR (Biacore T100), biotinylated enzyme on streptavidin chip on GH13-6; pig pancreatic α-amylase

[2] = biological target: T2, GH13-3; E. coli α-amylase (Escherichia coli, UniProt P26612); test: as above
T2 construct: gene amyA; commercial recombinant (Prozomix); biotinylated, on streptavidin chip; GH13 subfamily 5 implied by homology to Bacillus sp
T2 sequence (P26612 1-495): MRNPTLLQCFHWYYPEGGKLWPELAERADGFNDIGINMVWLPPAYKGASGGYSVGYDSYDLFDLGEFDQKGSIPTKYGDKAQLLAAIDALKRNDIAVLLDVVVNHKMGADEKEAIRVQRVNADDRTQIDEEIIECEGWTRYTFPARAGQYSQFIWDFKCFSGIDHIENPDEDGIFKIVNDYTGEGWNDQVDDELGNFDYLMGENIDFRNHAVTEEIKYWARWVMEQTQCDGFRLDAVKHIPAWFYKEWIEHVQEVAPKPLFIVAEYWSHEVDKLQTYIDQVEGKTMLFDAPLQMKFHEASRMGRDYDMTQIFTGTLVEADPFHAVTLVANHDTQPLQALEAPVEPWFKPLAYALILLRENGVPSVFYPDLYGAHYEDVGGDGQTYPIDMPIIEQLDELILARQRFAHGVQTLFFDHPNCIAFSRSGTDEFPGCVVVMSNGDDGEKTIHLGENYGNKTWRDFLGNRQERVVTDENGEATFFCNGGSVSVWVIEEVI
Text: SPR (Biacore T100), biotinylated enzyme on streptavidin chip on GH13-3; E. coli α-amylase

[3] = biological target: T3, GH13-5; pullulanase from Bacillus subtilis (Bacillus subtilis, UniProt C0SPA0); test: as above
T3 construct: gene amyX; commercial recombinant (Prozomix); contains CBM48; biotinylated, on streptavidin chip
T3 sequence (C0SPA0 1-718): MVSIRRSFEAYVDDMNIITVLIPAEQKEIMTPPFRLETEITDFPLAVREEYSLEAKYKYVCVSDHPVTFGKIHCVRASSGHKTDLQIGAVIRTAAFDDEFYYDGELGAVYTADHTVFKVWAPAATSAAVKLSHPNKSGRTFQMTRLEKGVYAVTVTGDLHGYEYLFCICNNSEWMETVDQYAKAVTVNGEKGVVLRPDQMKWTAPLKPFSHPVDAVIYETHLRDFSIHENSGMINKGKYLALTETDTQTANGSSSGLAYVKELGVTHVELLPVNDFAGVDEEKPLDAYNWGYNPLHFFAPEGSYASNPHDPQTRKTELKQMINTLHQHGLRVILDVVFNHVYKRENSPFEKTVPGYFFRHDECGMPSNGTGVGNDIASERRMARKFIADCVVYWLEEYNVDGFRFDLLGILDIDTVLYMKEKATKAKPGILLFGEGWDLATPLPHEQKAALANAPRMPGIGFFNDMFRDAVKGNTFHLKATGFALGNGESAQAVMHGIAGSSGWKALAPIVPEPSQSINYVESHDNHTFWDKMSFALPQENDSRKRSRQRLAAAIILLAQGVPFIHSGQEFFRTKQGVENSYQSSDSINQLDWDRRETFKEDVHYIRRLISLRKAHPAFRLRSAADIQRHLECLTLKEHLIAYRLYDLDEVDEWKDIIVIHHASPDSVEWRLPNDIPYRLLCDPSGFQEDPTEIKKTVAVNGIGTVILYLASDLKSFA
Text: SPR (Biacore T100), biotinylated enzyme on streptavidin chip on GH13-5; pullulanase from Bacillus subtilis

[4] = biological target: T4, GH48-1; processive endoglucanase from Clostridium cellulolyticum (Ruminiclostridium cellulolyticum, UniProt P37698); test: SPR (Biacore T100), enzyme amine-coupled to CM5 chip; settings: one-site fit; immobilised enzyme
T4 construct: gene celCCF; commercial recombinant (NZYtech), no CBM; amine-coupled to CM5 chip
T4 sequence (P37698 30-650 limits assumed): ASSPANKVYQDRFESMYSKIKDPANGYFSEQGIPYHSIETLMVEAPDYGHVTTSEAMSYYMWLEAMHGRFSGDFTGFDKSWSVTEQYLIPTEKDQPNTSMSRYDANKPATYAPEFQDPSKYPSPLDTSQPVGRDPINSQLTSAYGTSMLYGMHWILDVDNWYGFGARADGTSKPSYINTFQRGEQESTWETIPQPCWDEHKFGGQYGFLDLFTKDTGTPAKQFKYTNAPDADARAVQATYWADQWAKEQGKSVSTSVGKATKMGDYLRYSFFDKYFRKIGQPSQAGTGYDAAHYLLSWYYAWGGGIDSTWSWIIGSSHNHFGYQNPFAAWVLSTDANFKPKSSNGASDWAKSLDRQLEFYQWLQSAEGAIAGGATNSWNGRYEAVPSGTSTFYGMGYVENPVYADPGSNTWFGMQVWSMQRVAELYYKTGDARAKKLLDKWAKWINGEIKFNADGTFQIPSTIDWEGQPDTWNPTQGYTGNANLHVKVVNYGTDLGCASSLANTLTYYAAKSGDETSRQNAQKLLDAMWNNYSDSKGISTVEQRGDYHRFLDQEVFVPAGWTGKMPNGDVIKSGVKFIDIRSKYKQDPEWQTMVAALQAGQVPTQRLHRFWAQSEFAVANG
Text: SPR (Biacore T100), enzyme amine-coupled to CM5 chip on GH48-1; processive endoglucanase from Clostridium cellulolyticum

[5] = biological target: T5, GH6-1; endoglucanase from Thermobifida fusca (Thermobifida fusca, UniProt P26222); test: as above; settings: one-site fit; immobilised enzyme
T5 construct: gene celB; gift of David Wilson; amine-coupled to CM5 chip
T5 sequence (P26222 32-322 limits assumed): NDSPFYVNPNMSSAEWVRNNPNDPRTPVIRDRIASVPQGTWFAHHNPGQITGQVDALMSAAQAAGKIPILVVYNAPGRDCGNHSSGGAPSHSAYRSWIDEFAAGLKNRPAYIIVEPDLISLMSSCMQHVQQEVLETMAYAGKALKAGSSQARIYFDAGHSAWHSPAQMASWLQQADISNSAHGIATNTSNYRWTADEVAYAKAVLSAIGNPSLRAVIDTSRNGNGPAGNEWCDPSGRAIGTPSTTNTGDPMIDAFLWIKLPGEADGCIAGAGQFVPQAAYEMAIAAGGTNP
Text: SPR (Biacore T100), enzyme amine-coupled to CM5 chip on GH6-1; endoglucanase from Thermobifida fusca

[6] = biological target: T6, GH8-1; endoglucanase from Clostridium thermocellum (Acetivibrio thermocellus, UniProt A3DC29); test: as above; settings: one-site fit; immobilised enzyme; stoichiometry above 2 (several sites)
T6 construct: gene celA; commercial recombinant (NZYtech), no CBM; amine-coupled to CM5 chip
T6 sequence (A3DC29 33-477): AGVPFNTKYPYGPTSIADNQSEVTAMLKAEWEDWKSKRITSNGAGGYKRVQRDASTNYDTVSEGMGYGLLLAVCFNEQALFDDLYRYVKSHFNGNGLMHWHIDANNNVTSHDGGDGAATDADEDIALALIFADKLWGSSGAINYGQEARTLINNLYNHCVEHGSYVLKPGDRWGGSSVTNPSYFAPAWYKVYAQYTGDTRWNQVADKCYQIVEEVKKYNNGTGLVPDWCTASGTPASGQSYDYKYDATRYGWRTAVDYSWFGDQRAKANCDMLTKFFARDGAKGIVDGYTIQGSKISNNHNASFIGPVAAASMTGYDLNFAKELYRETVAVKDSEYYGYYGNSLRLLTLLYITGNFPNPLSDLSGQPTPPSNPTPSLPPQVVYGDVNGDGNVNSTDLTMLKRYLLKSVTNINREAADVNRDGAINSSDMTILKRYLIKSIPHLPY
Text: SPR (Biacore T100), enzyme amine-coupled to CM5 chip on GH8-1; endoglucanase from Clostridium thermocellum

[7] = biological target: T6, GH8-1; endoglucanase from Clostridium thermocellum; test: as above; settings: immobilised enzyme; ligand 10-5000 μM; weak, not saturable

SMILES: OC[C@H]1O[C@@H]2O[C@H]3[C@H](O)[C@@H](O)[C@@H](O[C@H]4[C@H](O)[C@@H](O)[C@@H](O[C@H]5[C@H](O)[C@@H](O)[C@@H](O[C@H]6[C@H](O)[C@@H](O)[C@@H](O[C@H]7[C@H](O)[C@@H](O)[C@@H](O[C@H]8[C@H](O)[C@@H](O)[C@@H](O[C@H]1[C@H](O)[C@H]2O)O[C@@H]8CO)O[C@@H]7CO)O[C@@H]6CO)O[C@@H]5CO)O[C@@H]4CO)O[C@@H]3CO [β-cyclodextrin]
Kd [1]: 870 ± 400 µM
Kd [2]: 1360 ± 50 µM
Kd [3]: 970 ± 130 µM

Kd ([1]; one-site fit, immobilised enzyme, stoichiometry above 1 (several sites)): 1330 ± 120 µM
SMILES: OC[C@H]1O[C@H](O[C@H]2[C@H](O)[C@@H](O)[C@@H](O[C@H]3[C@H](O)[C@@H](O)[C@@H](O[C@H]4[C@H](O)[C@@H](O)[C@@H](O[C@H]5[C@H](O)[C@@H](O)[C@@H](O[C@H]6[C@H](O)[C@@H](O)C(O)O[C@@H]6CO)O[C@@H]5CO)O[C@@H]4CO)O[C@@H]3CO)O[C@@H]2CO)[C@H](O)[C@@H](O)[C@@H]1O (stereo partly drawn) [maltohexaose]

Kd [4]: 2070 ± 780 µM
Kd [5]: 330 ± 110 µM
Kd [6]: 860 ± 90 µM
SMILES: OC[C@H]1O[C@@H](O[C@H]2[C@H](O)[C@@H](O)[C@H](O[C@H]3[C@H](O)[C@@H](O)[C@H](O[C@H]4[C@H](O)[C@@H](O)[C@H](O[C@H]5[C@H](O)[C@@H](O)C(O)O[C@@H]5CO)O[C@@H]4CO)O[C@@H]3CO)O[C@@H]2CO)[C@H](O)[C@@H](O)[C@@H]1O (stereo partly drawn) [cellopentaose]

SMILES: OC[C@H]1O[C@H](O[C@H]2[C@H](O)[C@@H](O)[C@@H](O[C@H]3[C@H](O)[C@@H](O)[C@@H](O[C@H]4[C@H](O)[C@@H](O)C(O)O[C@@H]4CO)O[C@@H]3CO)O[C@@H]2CO)[C@H](O)[C@@H](O)[C@@H]1O (stereo partly drawn) [maltotetraose]
NS [7]: GH8-1 interacts weakly with these oligosaccharides

SMILES: OC1OC[C@@H](O[C@@H]2OC[C@@H](O[C@@H]3OC[C@@H](O[C@@H]4OC[C@@H](O)[C@H](O)[C@H]4O)[C@H](O)[C@H]3O)[C@H](O)[C@H]2O)[C@H](O)[C@H]1O (stereo partly drawn) [xylotetraose]
NS [7]: GH8-1 interacts weakly with these oligosaccharides
